Test results published in ChEMBL document CHEMBL1155301, “Optimization of the aminopyridopyrazinones class of PDE5 inhibitors: discovery of 3-[(trans-4-hydroxycyclohexyl)amino]-7-(6-methoxypyridin-3-yl)-1-(2-propoxyethyl)pyrido[3,4-b]pyrazin-2(1H)-one” (Bioorg Med Chem Lett, 2009).
Values joined by “and” are separate entries in the source; they are usually repeats but may differ in a detail not shown here. Equal entries are not always repeated. Active and inactive are the calls of the source. The calls are words filed in the database; no cut-off is given here.

Assays:
[1] = Clearance in rat; format: ADME, organism-based; settings: in vivo
[2] = molecular target: High affinity cGMP-specific 3',5'-cyclic phosphodiesterase 9A (Homo sapiens, UniProt O76083); assay: Inhibition of PDE9
[3] = molecular target: 3',5'-cyclic-AMP phosphodiesterase 4C (Homo sapiens, UniProt Q08493); assay: Inhibition of PDE4C
[4] = molecular target: High affinity cAMP-specific and IBMX-insensitive 3',5'-cyclic phosphodiesterase 8A (Homo sapiens, UniProt O60658); assay: Inhibition of PDE8A
[5] = molecular target: High affinity cAMP-specific and IBMX-insensitive 3',5'-cyclic phosphodiesterase 8B (Homo sapiens, UniProt O95263); assay: Inhibition of PDE8B
[6] = molecular target: 3',5'-cyclic-AMP phosphodiesterase 7B (Homo sapiens, UniProt Q9NP56); assay: Inhibition of PDE7B
[7] = molecular target: Dual specificity calcium/calmodulin-dependent 3',5'-cyclic nucleotide phosphodiesterase 1C (Homo sapiens, UniProt Q14123); assay: Inhibition of PDE1C
[8] = Half life in rat; format: ADME, organism-based; settings: in vivo
[9] = molecular target: Dual specificity calcium/calmodulin-dependent 3',5'-cyclic nucleotide phosphodiesterase 1B (Homo sapiens, UniProt Q01064); assay: Inhibition of PDE1B
[10] = molecular target: High affinity 3',5'-cyclic-AMP phosphodiesterase 7A (Homo sapiens, UniProt Q13946); assay: Inhibition of PDE7A
[11] = molecular target: Dual specificity calcium/calmodulin-dependent 3',5'-cyclic nucleotide phosphodiesterase 1A (Homo sapiens, UniProt P54750); assay: Inhibition of PDE1A
[12] = molecular target: cGMP-dependent 3',5'-cyclic phosphodiesterase (Homo sapiens, UniProt O00408); assay: Inhibition of PDE2
[13] = molecular target: 3',5'-cyclic-AMP phosphodiesterase 4A (Homo sapiens, UniProt P27815); assay: Inhibition of PDE4A
[14] = molecular target: Rod cGMP-specific 3',5'-cyclic phosphodiesterase subunit alpha (Homo sapiens, UniProt P16499); assay: Inhibition of PDE6
[15] = molecular target: 3',5'-cyclic-AMP phosphodiesterase 4B (Homo sapiens, UniProt Q07343); assay: Inhibition of PDE4B
[16] = system: Rattus norvegicus; assay: Antihypertensive activity against telemeterized rat at 10 mg/kg, po; format: functional, organism-based; design: dose 10 mg/kg
[17] = molecular target: cGMP-inhibited 3',5'-cyclic phosphodiesterase 3B (Homo sapiens, UniProt Q13370); assay: Inhibition of PDE3B
[18] = molecular target: cGMP-inhibited 3',5'-cyclic phosphodiesterase 3A (Homo sapiens, UniProt Q14432); assay: Inhibition of PDE3A
[19] = molecular target: Dual 3',5'-cyclic-AMP and -GMP phosphodiesterase 11A (Homo sapiens, UniProt Q9HCR9); assay: Inhibition of PDE11
[20] = Oral bioavailability in rat at 2 mg/kg; format: ADME, organism-based; settings: in vivo
[21] = Permeability from apical to basolateral side in human Caco-2 cells; format: ADME, cell-based; settings: read-out: permeability
[22] = Volume of distribution in rat at 2 mg/kg, iv and 2 mg/kg, po; format: ADME, organism-based; settings: in vivo
[23] = Oral bioavailability in dog at 2 mg/kg; format: ADME, organism-based, Canis lupus familiaris; settings: in vivo
[24] = Half life in dog at 2 mg/kg, po and 2 mg/kg, iv; format: ADME, organism-based, Canis lupus familiaris; settings: in vivo
[25] = molecular target: 3',5'-cyclic-AMP phosphodiesterase 4D (Homo sapiens, UniProt Q08499)
[26] = Clearance in rat at 2 mg/kg, po and 2 mg/kg, iv; format: ADME, organism-based; settings: in vivo
[27] = organism: Rattus norvegicus; assay: Unbound clearance in rat; format: ADME, organism-based; settings: in vivo
[28] = Clearance in dog at 2 mg/kg, po and 2 mg/kg, iv; format: ADME, organism-based, Canis lupus familiaris; settings: in vivo
[29] = molecular target: cGMP-specific 3',5'-cyclic phosphodiesterase (Homo sapiens, UniProt O76074); assay: Inhibition of PDE5
[30] = Half life in rat at 2 mg/kg, po and 2 mg/kg, iv; format: ADME, organism-based; settings: in vivo
[31] = organism: Rattus norvegicus; assay: Unbound volume of distribution in rat; format: ADME, organism-based; settings: in vivo
[32] = Volume of distribution in dog at 2 mg/kg, iv and 2 mg/kg, po; format: ADME, organism-based, Canis lupus familiaris; settings: in vivo

3',5'-cyclic-AMP phosphodiesterase 4B, sequence (Q07343 whole entry): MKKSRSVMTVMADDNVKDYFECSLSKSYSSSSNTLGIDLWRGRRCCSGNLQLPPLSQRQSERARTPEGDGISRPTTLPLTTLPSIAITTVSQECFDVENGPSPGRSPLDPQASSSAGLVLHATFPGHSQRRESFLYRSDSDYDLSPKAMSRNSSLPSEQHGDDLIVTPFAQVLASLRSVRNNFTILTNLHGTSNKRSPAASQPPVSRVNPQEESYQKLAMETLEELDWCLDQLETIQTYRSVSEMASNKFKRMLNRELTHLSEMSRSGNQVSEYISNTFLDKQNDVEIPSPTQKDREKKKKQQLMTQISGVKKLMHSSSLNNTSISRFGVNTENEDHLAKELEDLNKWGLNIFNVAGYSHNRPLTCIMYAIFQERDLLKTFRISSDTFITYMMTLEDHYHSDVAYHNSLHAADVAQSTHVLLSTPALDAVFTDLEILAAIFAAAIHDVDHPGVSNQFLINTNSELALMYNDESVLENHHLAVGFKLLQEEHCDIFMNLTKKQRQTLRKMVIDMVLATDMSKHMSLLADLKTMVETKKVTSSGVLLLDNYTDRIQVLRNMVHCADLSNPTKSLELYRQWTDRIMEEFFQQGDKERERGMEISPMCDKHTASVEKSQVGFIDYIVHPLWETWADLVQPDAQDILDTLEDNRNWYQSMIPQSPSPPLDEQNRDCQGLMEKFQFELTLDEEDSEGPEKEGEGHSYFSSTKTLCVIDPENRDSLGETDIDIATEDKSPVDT
Rod cGMP-specific 3',5'-cyclic phosphodiesterase subunit alpha, sequence (P16499 whole entry): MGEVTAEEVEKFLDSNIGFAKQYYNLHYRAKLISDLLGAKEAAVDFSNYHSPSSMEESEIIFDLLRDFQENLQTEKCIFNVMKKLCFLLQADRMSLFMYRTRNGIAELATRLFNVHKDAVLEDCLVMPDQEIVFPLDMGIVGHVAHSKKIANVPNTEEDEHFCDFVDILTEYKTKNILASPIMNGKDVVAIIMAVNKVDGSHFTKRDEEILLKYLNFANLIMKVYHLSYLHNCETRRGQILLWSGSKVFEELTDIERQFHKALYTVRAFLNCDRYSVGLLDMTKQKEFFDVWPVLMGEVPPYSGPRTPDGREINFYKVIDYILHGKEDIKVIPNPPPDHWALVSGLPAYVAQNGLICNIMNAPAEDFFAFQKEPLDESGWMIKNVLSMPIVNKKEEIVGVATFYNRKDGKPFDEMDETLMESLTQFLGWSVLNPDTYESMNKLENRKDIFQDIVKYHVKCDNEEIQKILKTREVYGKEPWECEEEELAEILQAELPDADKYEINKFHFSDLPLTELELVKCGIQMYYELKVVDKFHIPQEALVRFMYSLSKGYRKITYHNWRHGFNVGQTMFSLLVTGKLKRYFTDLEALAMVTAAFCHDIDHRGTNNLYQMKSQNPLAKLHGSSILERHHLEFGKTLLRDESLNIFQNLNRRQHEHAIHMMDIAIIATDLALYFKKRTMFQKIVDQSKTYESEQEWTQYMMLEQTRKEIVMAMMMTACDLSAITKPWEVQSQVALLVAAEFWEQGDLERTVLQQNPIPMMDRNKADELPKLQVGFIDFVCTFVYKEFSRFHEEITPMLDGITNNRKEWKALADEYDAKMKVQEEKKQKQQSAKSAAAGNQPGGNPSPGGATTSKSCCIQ
3',5'-cyclic-AMP phosphodiesterase 4A, sequence (P27815 whole entry): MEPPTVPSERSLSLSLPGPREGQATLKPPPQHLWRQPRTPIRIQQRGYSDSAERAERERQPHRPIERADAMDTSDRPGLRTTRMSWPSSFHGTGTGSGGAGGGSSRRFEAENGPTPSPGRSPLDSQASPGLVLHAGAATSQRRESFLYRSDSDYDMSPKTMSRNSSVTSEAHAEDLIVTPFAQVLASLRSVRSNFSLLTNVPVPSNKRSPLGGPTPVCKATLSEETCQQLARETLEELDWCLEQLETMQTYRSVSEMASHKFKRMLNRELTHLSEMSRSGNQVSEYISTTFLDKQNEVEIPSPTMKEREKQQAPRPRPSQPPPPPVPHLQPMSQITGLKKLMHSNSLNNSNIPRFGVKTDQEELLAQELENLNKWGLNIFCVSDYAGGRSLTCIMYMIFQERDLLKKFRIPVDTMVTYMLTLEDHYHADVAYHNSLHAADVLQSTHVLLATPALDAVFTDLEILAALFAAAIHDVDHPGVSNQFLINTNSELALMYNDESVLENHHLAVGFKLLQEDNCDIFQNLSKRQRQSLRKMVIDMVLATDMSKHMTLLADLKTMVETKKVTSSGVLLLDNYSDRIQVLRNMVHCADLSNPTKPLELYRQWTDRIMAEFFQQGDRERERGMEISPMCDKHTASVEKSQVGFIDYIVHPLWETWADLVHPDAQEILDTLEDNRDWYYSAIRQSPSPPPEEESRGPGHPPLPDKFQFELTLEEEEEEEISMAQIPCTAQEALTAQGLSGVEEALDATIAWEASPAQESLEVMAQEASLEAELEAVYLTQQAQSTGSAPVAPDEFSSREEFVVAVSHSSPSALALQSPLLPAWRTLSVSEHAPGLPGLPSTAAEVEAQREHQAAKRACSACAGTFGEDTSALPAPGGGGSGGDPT
High affinity cGMP-specific 3',5'-cyclic phosphodiesterase 9A, sequence (O76083 whole entry): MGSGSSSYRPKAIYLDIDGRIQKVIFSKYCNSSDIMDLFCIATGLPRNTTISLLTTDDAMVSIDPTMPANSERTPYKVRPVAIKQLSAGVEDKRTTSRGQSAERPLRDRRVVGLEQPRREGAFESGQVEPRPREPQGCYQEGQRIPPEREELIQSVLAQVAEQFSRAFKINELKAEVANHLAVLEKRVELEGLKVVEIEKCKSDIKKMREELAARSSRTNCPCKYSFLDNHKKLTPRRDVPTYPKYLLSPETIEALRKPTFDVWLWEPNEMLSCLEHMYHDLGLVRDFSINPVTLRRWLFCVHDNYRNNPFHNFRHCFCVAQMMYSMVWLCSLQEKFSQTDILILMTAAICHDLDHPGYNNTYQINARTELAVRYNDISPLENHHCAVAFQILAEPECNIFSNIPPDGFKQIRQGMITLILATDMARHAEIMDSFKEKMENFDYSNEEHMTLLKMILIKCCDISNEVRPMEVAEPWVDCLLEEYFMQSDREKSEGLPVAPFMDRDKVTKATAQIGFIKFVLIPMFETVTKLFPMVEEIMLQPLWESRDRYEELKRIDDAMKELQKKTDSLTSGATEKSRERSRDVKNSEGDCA
3',5'-cyclic-AMP phosphodiesterase 4C, sequence (Q08493 whole entry): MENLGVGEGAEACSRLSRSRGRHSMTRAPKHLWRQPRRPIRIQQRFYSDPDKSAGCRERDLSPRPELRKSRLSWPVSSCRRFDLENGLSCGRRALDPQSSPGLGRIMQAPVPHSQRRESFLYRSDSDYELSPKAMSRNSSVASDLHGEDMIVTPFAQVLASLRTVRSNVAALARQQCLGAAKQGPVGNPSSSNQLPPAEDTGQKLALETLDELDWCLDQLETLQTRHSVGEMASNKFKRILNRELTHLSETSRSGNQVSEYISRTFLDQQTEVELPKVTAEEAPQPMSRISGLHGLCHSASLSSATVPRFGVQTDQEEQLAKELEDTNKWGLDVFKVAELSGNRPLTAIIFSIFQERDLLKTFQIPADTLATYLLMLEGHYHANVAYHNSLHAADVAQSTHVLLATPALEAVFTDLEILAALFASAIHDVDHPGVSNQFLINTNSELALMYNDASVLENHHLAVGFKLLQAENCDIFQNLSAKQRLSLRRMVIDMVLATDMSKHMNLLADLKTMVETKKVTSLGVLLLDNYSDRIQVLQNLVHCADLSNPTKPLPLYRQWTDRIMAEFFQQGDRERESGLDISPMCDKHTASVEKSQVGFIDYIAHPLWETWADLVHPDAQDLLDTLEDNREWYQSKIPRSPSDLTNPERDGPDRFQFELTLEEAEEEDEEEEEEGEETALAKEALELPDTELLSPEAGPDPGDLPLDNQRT
Dual specificity calcium/calmodulin-dependent 3',5'-cyclic nucleotide phosphodiesterase 1A, sequence (P54750 whole entry): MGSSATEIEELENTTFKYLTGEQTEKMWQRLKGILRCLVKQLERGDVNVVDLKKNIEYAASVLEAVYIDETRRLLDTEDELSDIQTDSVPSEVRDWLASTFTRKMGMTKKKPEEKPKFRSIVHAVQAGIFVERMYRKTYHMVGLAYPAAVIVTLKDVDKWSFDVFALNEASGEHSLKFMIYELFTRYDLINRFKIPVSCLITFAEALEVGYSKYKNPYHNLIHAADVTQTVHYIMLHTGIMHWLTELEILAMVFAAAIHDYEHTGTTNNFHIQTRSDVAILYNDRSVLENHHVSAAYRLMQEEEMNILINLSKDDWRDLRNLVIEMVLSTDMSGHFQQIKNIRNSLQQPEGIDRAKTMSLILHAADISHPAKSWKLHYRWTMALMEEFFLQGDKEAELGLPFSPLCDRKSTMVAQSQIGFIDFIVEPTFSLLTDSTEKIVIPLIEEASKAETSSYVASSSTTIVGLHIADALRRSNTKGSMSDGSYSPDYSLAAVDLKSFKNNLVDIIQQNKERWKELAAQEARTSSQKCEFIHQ
Dual specificity calcium/calmodulin-dependent 3',5'-cyclic nucleotide phosphodiesterase 1B, sequence (Q01064 whole entry): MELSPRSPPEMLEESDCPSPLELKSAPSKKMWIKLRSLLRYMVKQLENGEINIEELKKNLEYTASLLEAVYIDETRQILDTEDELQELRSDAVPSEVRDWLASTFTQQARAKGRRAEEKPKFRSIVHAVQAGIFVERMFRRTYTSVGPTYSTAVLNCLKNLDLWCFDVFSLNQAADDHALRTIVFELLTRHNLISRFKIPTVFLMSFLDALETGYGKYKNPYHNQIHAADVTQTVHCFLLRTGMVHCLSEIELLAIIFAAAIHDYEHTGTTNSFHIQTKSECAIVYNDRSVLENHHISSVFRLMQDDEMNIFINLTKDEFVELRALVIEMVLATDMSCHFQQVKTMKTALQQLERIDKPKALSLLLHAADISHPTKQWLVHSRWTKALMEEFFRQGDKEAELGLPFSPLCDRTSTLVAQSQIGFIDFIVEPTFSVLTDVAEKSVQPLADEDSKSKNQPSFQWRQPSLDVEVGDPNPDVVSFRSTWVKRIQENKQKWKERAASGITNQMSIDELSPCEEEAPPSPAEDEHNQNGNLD

Row | IC50 [2] [nM] | IC50 [3] [nM] | IC50 [4] [nM] | IC50 [5] [nM] | IC50 [6] [nM] | IC50 [7] [nM] | IC50 [9] [nM] | IC50 [10] [nM] | IC50 [11] [nM] | IC50 [12] [nM] | IC50 [13] [nM] | IC50 [14] [nM] | IC50 [15] | IC50 [17] [nM] | IC50 [18] [nM] | IC50 [19] [nM] | Compound | Activity [16] | also measured
1 | > 2000 | > 2000 | > 2000 | > 2000 | > 2000 | > 2000 | > 2000 | > 2000 | > 2000 | > 2000 | > 2000 | 11.3 | > 2000 nM | > 2000 | > 2000 | 346 | CCCOCCn1c(=O)c(NCCN2CCOCC2)nc2cnc(-c3ccc(OC)nc3)cc21 | Active | clearance [1]: 33 mL/min/kg; half-life [8]: 0.8 h
2 | > 2000 | > 2000 | > 2000 | > 2000 | > 2000 | > 2000 | > 2000 | > 2000 | > 2000 | > 2000 | > 2000 | 9.8 | > 2000 nM and 290 nM | > 2000 | > 2000 | 64.1 | CCCOCCn1c(=O)c(N[C@H]2CC[C@H](O)CC2)nc2cnc(-c3ccc(OC)nc3)cc21 | Active | bioavailability [20]: 50%; Papp A→B [21]: 34 ×10⁻⁶ cm/s; Vd [22]: 1.4 L/kg; bioavailability [23]: 75%; half-life [24]: 17.6 h; IC50 [25]: 1210 nM; clearance [26]: 5.5 mL/min/kg; CL free [27]: 400 mL/min/kg; clearance [28]: 3.5 mL/min/kg; IC50 [29]: 0.05 nM; half-life [30]: 4.1 h; Vdu [31]: 100 L/kg; Vd [32]: 3.7 L/kg
